We go through two compounds from US20160046592A1, “PHARMACEUTICAL COMPOSITION FOR THE TREATMENT OF DIABETES” (Ajinomoto Co., Inc., priority 2013, published 2016).

The experiment concerns the target T1, PPAR-α (Homo sapiens, UniProt Q07869).
T1 construct: expressed in transfected cells; host or cells: CV-1 (African green monkey kidney)
T1 sequence (Q07869 167-468): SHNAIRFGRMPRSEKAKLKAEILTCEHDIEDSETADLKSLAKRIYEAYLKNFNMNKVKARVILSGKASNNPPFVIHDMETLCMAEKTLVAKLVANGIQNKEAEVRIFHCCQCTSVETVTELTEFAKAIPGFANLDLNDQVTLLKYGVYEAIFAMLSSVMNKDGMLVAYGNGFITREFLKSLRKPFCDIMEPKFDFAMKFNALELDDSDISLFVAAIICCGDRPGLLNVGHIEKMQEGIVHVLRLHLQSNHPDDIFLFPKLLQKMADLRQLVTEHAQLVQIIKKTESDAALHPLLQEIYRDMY
Put plainly: Measurement of PPAR-α activity (GAL4 luciferase reporter assay in CV-1 cells). Format: cell-based. Conditions: 100(A/B): A = maximum PPAR-α activity of test compound at 3, 10, 30 and 100 μM, B = activity of the compound of WO/2011/058154 at 100 μM, 18 to 20 hours, read-out: Relative fold induction (%) of PPAR α. The procedure, abridged: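 CV-1 cells were co-transfected with a UAS×5-TK-Luc reporter and a hGR-GAL4-hPPARα (LBD 167-468aa) expression plasmid, then dosed with compound for 18 to 20 h at 37 °C, with Bright-Glo luciferase read-out. Relative fold induction (%) is the maximum activity at 3, 10, 30 or 100 μM divided by the activity of a WO/2011/058154 reference compound at 100 μM.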

Counter-ions that a name gives are not always drawn.

As to `COC[C@@H]1CC[C@@H](C(=O)O)N1C(=O)c1cccc(COc2ccc(-c3cc(F)c(F)cc3SC)cc2)c1` [Example 62, (2S,5S)-1-[3-[[4-(4,5-Difluoro-2-methylsulfanyl-phenyl)phenoxy]methyl]benzoyl]-5-(methoxymethyl)pyrrolidine-2-carboxylic Acid], the Emax came out at 14%. With `CSc1cc(F)c(F)cc1-c1ccc(OCc2cccc(C(=O)N3C[C@H](N(C)C)C[C@H]3C(=O)O)c2)cc1` [Example 63, (2S,4R)-1-[3-[[4-(4,5-Difluoro-2-methylsulfanyl-phenyl)phenoxy]methyl]benzoyl]-4-(dimethylamino)pyrrolidine-2-carboxylic Acid Trifluoroacetate] the figure was 13%.
